According to US20250304576A1 (Cancer Research Technology Limited, priority 2022, published 2025):

Experiments:
Recombinant IKKα = target: T1, Recombinant IKKα (Homo sapiens, UniProt O15111); test: DELFIA IKKα kinase assay (apparent Ki, Cheng-Prusoff); assay type: biochemical; conditions: DELFIA assay (first line of an example)
T1 construct: purchased Millipore, Dundee, UK
T1 sequence (O15111 1-745): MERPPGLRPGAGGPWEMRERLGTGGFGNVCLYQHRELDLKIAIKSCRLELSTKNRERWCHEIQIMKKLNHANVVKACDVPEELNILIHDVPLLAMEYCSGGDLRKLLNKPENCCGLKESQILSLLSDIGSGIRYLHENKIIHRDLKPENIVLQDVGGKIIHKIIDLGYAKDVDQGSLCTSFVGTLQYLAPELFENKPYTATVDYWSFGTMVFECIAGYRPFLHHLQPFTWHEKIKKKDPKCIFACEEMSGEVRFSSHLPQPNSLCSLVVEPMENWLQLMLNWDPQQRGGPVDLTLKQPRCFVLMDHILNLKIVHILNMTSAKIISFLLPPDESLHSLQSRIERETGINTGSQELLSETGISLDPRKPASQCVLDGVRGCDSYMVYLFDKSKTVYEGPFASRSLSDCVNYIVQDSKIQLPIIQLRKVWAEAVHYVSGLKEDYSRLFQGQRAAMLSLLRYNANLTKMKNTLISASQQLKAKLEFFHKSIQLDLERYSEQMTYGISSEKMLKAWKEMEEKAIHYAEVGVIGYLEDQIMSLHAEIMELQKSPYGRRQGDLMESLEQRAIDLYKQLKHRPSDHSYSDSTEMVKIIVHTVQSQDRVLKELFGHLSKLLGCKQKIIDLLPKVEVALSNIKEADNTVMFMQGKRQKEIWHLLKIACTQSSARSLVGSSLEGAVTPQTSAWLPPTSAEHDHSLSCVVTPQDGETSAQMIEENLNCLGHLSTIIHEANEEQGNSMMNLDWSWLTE
Procedure, shortened: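 DELFIA time-resolved fluorescence (ex 340/em 615 nm) quantified phosphorylation of a biotinylated IκB-α Ser32 peptide (0.375 μM) by 37 nM recombinant IKKα or IKKβ. Reactions used 40 μM ATP, Tris pH 7.5 buffer with MgCl2, DTT and BSA, 60 min at 30° C. Cheng-Prusoff equation gave apparent Ki.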

CHUK (IKK alpha) = target: T2, CHUK (IKK alpha) (Homo sapiens, UniProt O15111); test: Adapta IKKα assay (TR-FRET ADP formation, Life Technologies); assay type: biochemical; conditions: Adapta assay (second line of an example)
T2 construct: purchased Life Technologies (assay performed by the vendor)
T2 sequence (O15111 1-745): T1 sequence (O15111 1-745)
Experimental: IKKα and IKKβ inhibitory activity was determined using three different assays: a dissociation enhanced ligand fluorescent immunoassay (DELFIA) based on the protocol of HTScan™ IKKβ Kinase Assay (Cell Signaling Technology, USA); an Adapta IKKα assay (performed by Life Technologies); a Z′-LYTE™ IKKβ assay (performed by Life Technologies).
The reaction was performed in low-volume white 384-well plates (Corning model 4512).
The test compounds were screened in 1% DMSO (final) in the well. For 10 point titrations, 3-fold serial dilutions were conducted from the starting concentration of 50 mM.
The 2× CHUK (IKK alpha) kinase was prepared in 50 mM HEPES pH 7.5, 0.01% BRIJ-35, 10 mM MgCl2 and 1 mM EGTA. The final 10 μL kinase mixture consisted of 50-250 ng CHUK (IKK alpha) in 32.5 mM HEPES pH 7.5, 0.005% BRIJ-35, 5 mM MgCl2 and 0.5 mM EGTA. No substrate was required, as the assay measures the ability of a compound to inhibit the kinase's intrinsic ATPase activity.
5 μL of 2× Kinase mixture was incubated with 2.5 μL of ATP solution diluted to a 4×working concentration in water, in the presence of 100 nL of 100× test compound in 100% DMSO and 2.4 μL of 30 mM HEPES buffer.
After 30-second plate shake and 1-minute centrifuge at 1000×g, the resulting kinase reaction was allowed to incubate for 1 hour at room temperature before 5 μL of Detection Mix was added.
The Detection Mix, previously prepared in TR-FRET Dilution Buffer, consisted of EDTA (30 mM), Eu-anti-ADP antibody (6 nM) and an Alexa Fluor™ 647 labelled ADP tracer. The Detection Mix contained the EC60 concentration of tracer for 5-150 μM ATP.
After 30-second plate shake and 1-minute centrifuge at 1000×g, the Detection Mix was allowed to equilibrate at room temperature for 1 hour. Then the plate was read using a fluorescence plate reader configured for Adapta™ TR-FRET and the data analysed.
ADP formation was determined by calculating the emission ratio from the assay well. Therefore, the emission ratio was calculated by dividing the intensity of the tracer (acceptor) emission by the intensity of the Eu (donor) emission at 615 nm as shown in the equation below.
The IKKα and IKKb figures quoted in italicised form are from the Adapta assay described above.

SMILES: Nc1n[nH]c2ccc(-c3ccnc4[nH]c(CCCN5CCOCC5)cc34)cc12 [Example 271, 5-(2-(3-Morpholinopropyl)-1H-pyrrolo[2,3-b]pyridin-4-yl)-1H-indazlo-3-amine]
- Ki (Recombinant IKKα): 11 nM
- IC50 (CHUK (IKK alpha)): 1 nM

SMILES: Nc1n[nH]c2ccc(-c3ccnc4[nH]c(CC5CCNCC5)cc34)cc12 [Example 272, 5-(2-(Piperidin-4-ylmethyl)-1H-pyrrolo[2,3-b]pyridin-4-yl)-1H-indazol-3-amine]
- Ki (Recombinant IKKα): 5 nM
- IC50 (CHUK (IKK alpha)): 1 nM
